According to patent publication US10597388B2, “Pyridazinone herbicides” (FMC CORPORATION, priority 2014, dated 2020):

How the values were obtained:
Test in all cases: Test C greenhouse herbicide test, pre- and postemergence
Format in all cases: in vivo
[1] = system: crabgrass, large (large crabgrass, Digitaria sanguinalis)
Outline: (§1)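 Percent-control ratings (0 none, 100 complete) came from visual comparison with controls held alongside in the greenhouse for 13–15 d. Treatments covered soil application at sowing and foliar application to young plants 2–18 cm tall.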

[2] = system: nutsedge, yellow (yellow nutsedge, Cyperus esculentus)
Outline: as §1

[3] = system: velvetleaf (Abutilon theophrasti)
Outline: as §1

corn (Zea mays) = system: corn (Zea mays)
Outline: as §1

[4] = system: foxtail, giant (giant foxtail, Setaria faberii)
Outline: as §1

[5] = system: lambsquarters (Chenopodium album)
Outline: as §1

[6] = system: ryegrass, Italian (Italian ryegrass, Lolium multiflorum)
Outline: as §1

[7] = system: oilseed rape (Brassica napus)
Outline: as §1

[8] = system: ragweed (common ragweed, Ambrosia elatior)
Outline: as §1

[9] = system: barnyardgrass (Echinochloa crus-galli)
Outline: as §1

[10] = system: waterhemp (common waterhemp, Amaranthus rudis)
Outline: as §1

soybean (Glycine max) = system: soybean (Glycine max)
Outline: as §1

[11] = system: blackgrass (Alopecurus myosuroides)
Outline: as §1

[12] = system: galium (catchweed bedstraw, Galium aparine)
Outline: as §1

[13] = system: morningglory (Ipomoea coccinea)
Outline: as §1

[14] = Postemergence, 31 g ai/ha, 0 to 100 scale (0 no effect, 100 complete control)
[15] = Postemergence, 125 g ai/ha, scale 0 to 100, 0 is no effect, 100 is complete control
[16] = Postemergence, 250 g ai/ha, scale 0 to 100, 0 no effect, 100 complete control, 13 to 15 d
[17] = Preemergence, 31 g ai/ha, scale 0 to 100, 0 is no effect, 100 is complete control
[18] = Preemergence, 62 g ai/ha, scale 0 to 100, 0 is no effect, 100 is complete control
[19] = Preemergence, 125 g ai/ha, scale 0 to 100, 0 is no effect, 100 is complete control
[20] = Preemergence, 250 g ai/ha, scale 0 to 100, 0 no effect, 100 complete control
[21] = postemergence, 62 g ai/ha, scale 0 to 100, 0 no effect, 100 complete control

Question: CCc1sc2ccc(C)cc2c1-c1c(O)c(C)nn(C)c1=O [Compound 47] was tested. Which “Crabgrass, Large plant response rating” value [1, 14] did it give?
Answer: 20

Question: What about the “Plant response rating, Crabgrass, Large” value [1, 15] of the same compound?
Answer: 40

Question: And the “Plant response rating, Crabgrass, Large” value [1, 16]?
Answer: 35

Question: And the “Plant response rating, Crabgrass, Large” value [1, 17]?
Answer: 0

Question: What about the “Plant response rating, Crabgrass, Large” value [1, 18] of the same compound?
Answer: 30

Question: What about the “Plant response rating, Crabgrass, Large” value [1, 19] of the same compound?
Answer: 60

Question: And the “Crabgrass, Large plant response rating” value [1, 20]?
Answer: 95

Question: What about the “Crabgrass, Large plant response rating” value [1, 21] of the same compound?
Answer: 30

Question: And the “Nutsedge, Yellow plant response rating” value [2, 14]?
Answer: 40

Question: What about the “Plant response rating, Nutsedge, Yellow” value [2, 15] of the same compound?
Answer: 80

Question: And the “Plant response rating, Nutsedge, Yellow” value [2, 16]?
Answer: 90

Question: And the “Plant response rating, Nutsedge, Yellow” value [2, 17]?
Answer: 35

Question: And the “Plant response rating, Nutsedge, Yellow” value [2, 18]?
Answer: 45

Question: And the “Plant response rating, Nutsedge, Yellow” value [2, 19]?
Answer: 75

Question: What about the “Nutsedge, Yellow plant response rating” value [2, 20] of the same compound?
Answer: 85

Question: What about the “Nutsedge, Yellow plant response rating” value [2, 21] of the same compound?
Answer: 70

Question: What about the “Velvetleaf plant response rating” value [3, 14] of the same compound?
Answer: 70

Question: And the “Plant response rating, Velvetleaf” value [3, 15]?
Answer: 95

Question: What about the “Plant response rating, Velvetleaf” value [3, 16] of the same compound?
Answer: 95

Question: What about the “Plant response rating, Velvetleaf” value [3, 17] of the same compound?
Answer: 65

Question: What about the “Plant response rating, Velvetleaf” value [3, 18] of the same compound?
Answer: 90

Question: What about the “Plant response rating, Velvetleaf” value [3, 19] of the same compound?
Answer: 100

Question: And the “Velvetleaf plant response rating” value [3, 20]?
Answer: 100

Question: What about the “Velvetleaf plant response rating” value [3, 21] of the same compound?
Answer: 90

Question: What about the “Corn plant response rating” value (corn (Zea mays); [14]) of the same compound?
Answer: 0

Question: What about the “Plant response rating, Corn” value (corn (Zea mays); [15]) of the same compound?
Answer: 10

Question: What about the “Plant response rating, Corn” value (corn (Zea mays); [16]) of the same compound?
Answer: 5

Question: And the “Plant response rating, Corn” value (corn (Zea mays); [17])?
Answer: 0

Question: And the “Plant response rating, Corn” value (corn (Zea mays); [18])?
Answer: 0

Question: What about the “Plant response rating, Corn” value (corn (Zea mays); [19]) of the same compound?
Answer: 0

Question: What about the “Corn plant response rating” value (corn (Zea mays); [20]) of the same compound?
Answer: 5

Question: What about the “Corn plant response rating” value (corn (Zea mays); [21]) of the same compound?
Answer: 5

Question: And the “Foxtail, Giant plant response rating” value [4, 14]?
Answer: 50

Question: What about the “Plant response rating, Foxtail, Giant” value [4, 15] of the same compound?
Answer: 75

Question: What about the “Plant response rating, Foxtail, Giant” value [4, 16] of the same compound?
Answer: 85

Question: What about the “Plant response rating, Foxtail, Giant” value [4, 17] of the same compound?
Answer: 15

Question: What about the “Plant response rating, Foxtail, Giant” value [4, 18] of the same compound?
Answer: 50

Question: What about the “Plant response rating, Foxtail, Giant” value [4, 19] of the same compound?
Answer: 85

Question: What about the “Foxtail, Giant plant response rating” value [4, 20] of the same compound?
Answer: 100

Question: And the “Foxtail, Giant plant response rating” value [4, 21]?
Answer: 65

Question: And the “Lambsquarters plant response rating” value [5, 14]?
Answer: 85

Question: What about the “Plant response rating, Lambsquarters” value [5, 15] of the same compound?
Answer: 98

Question: And the “Plant response rating, Lambsquarters” value [5, 16]?
Answer: 85

Question: What about the “Plant response rating, Lambsquarters” value [5, 17] of the same compound?
Answer: 100

Question: And the “Plant response rating, Lambsquarters” value [5, 18]?
Answer: 100

Question: What about the “Plant response rating, Lambsquarters” value [5, 19] of the same compound?
Answer: 100

Question: What about the “Lambsquarters plant response rating” value [5, 20] of the same compound?
Answer: 100

Question: What about the “Lambsquarters plant response rating” value [5, 21] of the same compound?
Answer: 85

Question: And the “Ryegrass, Italian plant response rating” value [6, 14]?
Answer: 0

Question: And the “Plant response rating, Ryegrass, Italian” value [6, 15]?
Answer: 25

Question: And the “Plant response rating, Ryegrass, Italian” value [6, 16]?
Answer: 30

Question: And the “Plant response rating, Ryegrass, Italian” value [6, 17]?
Answer: 0

Question: And the “Plant response rating, Ryegrass, Italian” value [6, 18]?
Answer: 20

Question: And the “Plant response rating, Ryegrass, Italian” value [6, 19]?
Answer: 45

Question: And the “Ryegrass, Italian plant response rating” value [6, 20]?
Answer: 50

Question: What about the “Ryegrass, Italian plant response rating” value [6, 21] of the same compound?
Answer: 10

Question: What about the “Oilseed Rape plant response rating” value [7, 14] of the same compound?
Answer: 0

Question: And the “Plant response rating, Oilseed Rape” value [7, 15]?
Answer: 5

Question: And the “Plant response rating, Oilseed Rape” value [7, 16]?
Answer: 10

Question: What about the “Plant response rating, Oilseed Rape” value [7, 17] of the same compound?
Answer: 0

Question: What about the “Plant response rating, Oilseed Rape” value [7, 18] of the same compound?
Answer: 0

Question: What about the “Plant response rating, Oilseed Rape” value [7, 19] of the same compound?
Answer: 0

Question: What about the “Oilseed Rape plant response rating” value [7, 20] of the same compound?
Answer: 10

Question: What about the “Oilseed Rape plant response rating” value [7, 21] of the same compound?
Answer: 0

Question: What about the “Ragweed plant response rating” value [8, 14] of the same compound?
Answer: 80

Question: And the “Plant response rating, Ragweed” value [8, 15]?
Answer: 98

Question: And the “Plant response rating, Ragweed” value [8, 16]?
Answer: 100

Question: And the “Plant response rating, Ragweed” value [8, 17]?
Answer: 50

Question: And the “Plant response rating, Ragweed” value [8, 18]?
Answer: 85

Question: And the “Plant response rating, Ragweed” value [8, 19]?
Answer: 98

Question: And the “Ragweed plant response rating” value [8, 20]?
Answer: 100

Question: And the “Ragweed plant response rating” value [8, 21]?
Answer: 98

Question: What about the “Barnyardgrass plant response rating” value [9, 14] of the same compound?
Answer: 15

Question: What about the “Plant response rating, Barnyardgrass” value [9, 15] of the same compound?
Answer: 85

Question: What about the “Plant response rating, Barnyardgrass” value [9, 16] of the same compound?
Answer: 90

Question: And the “Plant response rating, Barnyardgrass” value [9, 17]?
Answer: 5

Question: And the “Plant response rating, Barnyardgrass” value [9, 18]?
Answer: 20

Question: What about the “Plant response rating, Barnyardgrass” value [9, 19] of the same compound?
Answer: 85

Question: And the “Barnyardgrass plant response rating” value [9, 20]?
Answer: 100

Question: And the “Barnyardgrass plant response rating” value [9, 21]?
Answer: 55

Question: And the “Waterhemp plant response rating” value [10, 14]?
Answer: 90

Question: What about the “Plant response rating, Waterhemp” value [10, 15] of the same compound?
Answer: 100

Question: And the “Plant response rating, Waterhemp” value [10, 16]?
Answer: 100

Question: What about the “Plant response rating, Waterhemp” value [10, 17] of the same compound?
Answer: 100

Question: What about the “Plant response rating, Waterhemp” value [10, 18] of the same compound?
Answer: 98

Question: And the “Plant response rating, Waterhemp” value [10, 19]?
Answer: 100

Question: What about the “Waterhemp plant response rating” value [10, 20] of the same compound?
Answer: 100

Question: And the “Waterhemp plant response rating” value [10, 21]?
Answer: 75

Question: And the “Soybean plant response rating” value (soybean (Glycine max); [14])?
Answer: 0

Question: And the “Plant response rating, Soybean” value (soybean (Glycine max); [15])?
Answer: 10

Question: What about the “Plant response rating, Soybean” value (soybean (Glycine max); [16]) of the same compound?
Answer: 15

Question: What about the “Plant response rating, Soybean” value (soybean (Glycine max); [17]) of the same compound?
Answer: 0

Question: What about the “Plant response rating, Soybean” value (soybean (Glycine max); [18]) of the same compound?
Answer: 0

Question: And the “Plant response rating, Soybean” value (soybean (Glycine max); [19])?
Answer: 10

Question: And the “Soybean plant response rating” value (soybean (Glycine max); [20])?
Answer: 30

Question: And the “Soybean plant response rating” value (soybean (Glycine max); [21])?
Answer: 10

Question: And the “Blackgrass plant response rating” value [11, 14]?
Answer: 0

Question: What about the “Plant response rating, Blackgrass” value [11, 15] of the same compound?
Answer: 30

Question: And the “Plant response rating, Blackgrass” value [11, 16]?
Answer: 30

Question: What about the “Plant response rating, Blackgrass” value [11, 17] of the same compound?
Answer: 0

Question: And the “Plant response rating, Blackgrass” value [11, 18]?
Answer: 30

Question: What about the “Plant response rating, Blackgrass” value [11, 19] of the same compound?
Answer: 40

Question: What about the “Blackgrass plant response rating” value [11, 20] of the same compound?
Answer: 90

Question: And the “Blackgrass plant response rating” value [11, 21]?
Answer: 20

Question: And the “Galium plant response rating” value [12, 14]?
Answer: 80

Question: And the “Plant response rating, Galium” value [12, 15]?
Answer: 90

Question: And the “Plant response rating, Galium” value [12, 16]?
Answer: 90

Question: What about the “Plant response rating, Galium” value [12, 17] of the same compound?
Answer: 90

Question: And the “Plant response rating, Galium” value [12, 18]?
Answer: 95

Question: And the “Plant response rating, Galium” value [12, 19]?
Answer: 98

Question: What about the “Galium plant response rating” value [12, 20] of the same compound?
Answer: 98

Question: What about the “Galium plant response rating” value [12, 21] of the same compound?
Answer: 90

Question: And the “Morningglory plant response rating” value [13, 14]?
Answer: 100

Question: What about the “Plant response rating, Morningglory” value [13, 15] of the same compound?
Answer: 100

Question: What about the “Plant response rating, Morningglory” value [13, 16] of the same compound?
Answer: 100

Question: What about the “Plant response rating, Morningglory” value [13, 17] of the same compound?
Answer: 90

Question: And the “Plant response rating, Morningglory” value [13, 18]?
Answer: 100

Question: What about the “Plant response rating, Morningglory” value [13, 19] of the same compound?
Answer: 100

Question: What about the “Morningglory plant response rating” value [13, 20] of the same compound?
Answer: 95

Question: What about the “Morningglory plant response rating” value [13, 21] of the same compound?
Answer: 100
